How the values were obtained:
HepG2 spheroids = experiment: Sensitivity to hepatotoxins, CellTiter-Glo ATP viability, 3D spheroids; type: cell-based; conditions: Homo sapiens, 4-day repeat dosing (day 3 and day 5), readout day 7, estimated from graphs
Protocol: (§1) For 2D monolayers, 10,000 HepG2 cells were seeded on 96-well plates (Thermo Fisher, Ireland). Cells were left to adhere for 24 h before being treated with chosen NBMs for desired timepoints. For HepG2 spheroid formation, cells were seeded in CellStar® 96 well ultra-low attachment (ULA) cell-repellent plates (Grenier, BioOne, UK) at a density of 1000 cells per well in 100 µl medium (Fig. 1). After 3 days of incubation at 37 °C with 5% CO2, medium was changed with care taken not to disturb the spheroids.
(§2) Sensitivity of spheroid cultures to a panel of common hepatotoxins was tested using a protocol detailed previously in works from Gaskell et al. and Bell et al. and using information listed in the MIP-DILI training set. The hepatotoxins included acetaminophen, diclofenac, trovafloxacin and fialuridine. HepG2 spheroids grown for 3 days and 10 days were exposed to the hepatotoxins, diluted in cell culture medium, for 4 days, with an addition dose administered 2 days after the first exposure. Concentrations tested for each compound were the following: • Acetaminophen: 10000, 5000, 1250, 625, 300, 150, 75 µg/ml • Diclofenac: 400, 200, 100, 50, 25, 12.5, 6.25 µg/ml • Trovafloxacin: 500, 200, 100, 50, 25, 12.5, 6.25 µg/ml • Fialuridine: 200, 100, 50, 25, 12.5, 6.25, 3.15 µg/ml
(§3) Viability of the treated cultures was determined using the CellTiter-Glo® assay (Thermo Fisher, Ireland) as per the manufacturer’s protocol. Culture medium alone with CellTiter-Glo® reagent was used as a blank control and subtracted from all sample values. Cell viability was calculated as a percentage of untreated vehicle control samples. A dose-dependent response curve was plotted, and estimations were made about what concentration of drug would cause a 50% reduction in cell viability (IC50 value). Experiments were run in triplicate (n = 3).
(§4) Spheroids and HepG2 monolayers were treated with varying concentrations of four common hepatotoxic compounds, namely acetaminophen, diclofenac, fialuridine and trovafloxacin. Following a protocol detailed in Gaskell et al., a 4-day repeat-dosing regimen was used to expose 3D spheroids, i.e. spheroids were cultured for 3 days before being treated with hepatotoxic compounds for 2 days, before doing is repeated again on day 5. Spheroids then remained in culture untouched until ATP quantification assay was undertaken on day 7. […] Each of the four chosen compounds was more toxic in 3D spheroids than in 2D monocultures, although differences were not statistically significant. The concentration causing a 50% reduction in cell viability (IC50) was estimated for each drug tested from the graphs, and is reported in Table 7. A comparison to data extracted from the scientific literature is also reported.

HepG2 2D monolayer = experiment: Sensitivity to hepatotoxins, CellTiter-Glo ATP viability, 2D monolayer; type: cell-based; conditions: Homo sapiens, 24-h acute dosing, estimated from graphs
Protocol: as §1, §2, §3, §4

[1] = test system: HepG2 cells (2D monocultures); experiment: NBM exposure, LDH cytotoxicity assay, 2D monocultures; type: cell-based, Human; conditions: 125 µM, 24 h
Protocol: Stock NBM suspensions were vortexed and appropriate dilutions made in cell culture medium. For NBM exposures, briefly, cell culture medium was removed from the wells of culture plates and wells washed with pre-warmed PBS. For adenosine 5′-triphosphate (ATP) quantification and lactate dehydrogenase (LDH) assay, 100 µl of each NBM concentration diluted in culture medium was added to each well for three incubation/exposure timepoints, 24, 48 and 72 h.
The LDH assay is a cytotoxicity assay which is used to assess the level of plasma membrane damage in a cell population. […] LDH release in the supernatants (an indirect measure of cytotoxicity responses) was assessed using the Thermo Scientific Pierce LDH Cytotoxicity Assay Kit (Fisher Scientific, Ireland), following the manufacturers’ protocols. […] Absorbance values at wavelengths (λ) equal to 490 and 680 nm were read using an Epoch microplate reader (Biotek, Mason Technologies, Ireland). The LDH activity was calculated using Eq. (1), whereas the percentage (%) cytotoxicity was extrapolated from Eq. (2).1 LDHactivity=Absorbanceλ=490nm-Absorbanceλ=680nm 2 Cytotoxicity%=LDHactivityTreatedculture-LDHactivityNT/LDHactivityPT-LDHactivityNT […]

Compound `O=c1[nH]c(=O)n([C@@H]2O[C@H](CO)[C@@H](O)[C@@H]2F)cc1I` [Fialuridine, fialuridine] has an IC50 (HepG2 spheroids) greater than 200 µM and an IC50 (HepG2 2D monolayer) greater than 200 µM.

With `O=C(O)Cc1ccccc1Nc1c(Cl)cccc1Cl` [Diclofenac, diclofenac] the IC50 (HepG2 spheroids) was greater than 250 µM and the IC50 (HepG2 2D monolayer) was greater than 400 µM.

`N[C@@H]1[C@H]2CN(c3nc4c(cc3F)c(=O)c(C(=O)O)cn4-c3ccc(F)cc3F)C[C@@H]12` [Trovafloxacin, trovafloxacin] showed an IC50 (HepG2 spheroids) greater than 100 µM and an IC50 (HepG2 2D monolayer) greater than 400 µM.

`CC(=O)Nc1ccc(O)cc1` [Acetaminophen, acetaminophen] showed an IC50 (HepG2 spheroids) greater than 8000 µM and an IC50 (HepG2 2D monolayer) greater than 10000 µM.

`CC(C)[C@@H]1NC(=O)[C@H](C)OC(=O)[C@@H](C(C)C)NC(=O)[C@@H](C(C)C)OC(=O)[C@H](C(C)C)NC(=O)[C@H](C)OC(=O)[C@@H](C(C)C)NC(=O)[C@@H](C(C)C)OC(=O)[C@H](C(C)C)NC(=O)[C@H](C)OC(=O)[C@@H](C(C)C)NC(=O)[C@@H](C(C)C)OC1=O` [valinomycin] gave a Maximal cell death [1] of less than 50%.

Reference: paper PMC9360078, “Pre-clinical 2D and 3D toxicity response to a panel of nanomaterials; comparative assessment of NBM-induced liver toxicity” (Drug Delivery and Translational Research, 2022)
